Data reported in patent publication US11643421B2, “Process for the preparation of tricyclic PI3K inhibitor compounds and methods for using the same for the treatment of cancer” (priority 2015, dated 2023).

How the values were obtained:
pAKT = assay: pAKT/total AKT in U87 MG/M xenograft tumors; format: in vivo, mice; details: 0.5, 3, 10, 18 mg/kg, 24 days continuous dosing, 1 hour and 4 hours post dose
Experimental: The effect of compound IIIat on the pharmacodynamics (PD) marker pAKT in the U87 MG/M human glioblastoma xenograft model after 24 days of continuous dosing at dosage rates of 0.5 mg/kg, 3 mg/kg, 10 mg/kg and 18 mg/kg was evaluated. Tumors were excised from animals 1 hour and 4 hours after the last administered dose on day 24 and processed for analysis of pAKT and total AKT. The results are reported in FIG. 4 as a ratio of pAKT to total AKT wherein indicated values are the means for groups of 3 animals and error bars indicate ±standard error of the mean. Levels of pAKT^Ser473 and total AKT were measured by electrochemiluminescence using Meso Scale Discovery according to manufacturer's instructions (Gaithersburg, Md.).

[1] = Plasma protein binding (PPB %); format: in vitro ADME, cynomolgus monkeys; details: cynomolgus monkey
Experimental: The hepatocyte stability of compound IIIat was evaluated across preclinical species. Certain in vivo pharmacokinetic parameters were also evaluated. […] Male Sprague-Dawley rats, female CD-1 mice, male cynomolgus monkeys and beagle dogs were dosed intravenously with 1 mg/kg of compound IIIat prepared in 60% PEG400/10% Ethanol. Compound IIIat was administered orally (PO) at the indicated dose in 0.5% methylcellulose with 0.2% Tween 80 (MCT).

mouse P-gp (mdr1a) = mouse P-gp (mdr1a) (Mus musculus, UniProt P21447); assay: Transport assay in Mdr1a-LLC-PK1 cell monolayers; format: in vitro ADME; details: Mdr1a-LLC-PK, 2-hour incubation
Chain of mouse P-gp (mdr1a) (P21447 whole entry): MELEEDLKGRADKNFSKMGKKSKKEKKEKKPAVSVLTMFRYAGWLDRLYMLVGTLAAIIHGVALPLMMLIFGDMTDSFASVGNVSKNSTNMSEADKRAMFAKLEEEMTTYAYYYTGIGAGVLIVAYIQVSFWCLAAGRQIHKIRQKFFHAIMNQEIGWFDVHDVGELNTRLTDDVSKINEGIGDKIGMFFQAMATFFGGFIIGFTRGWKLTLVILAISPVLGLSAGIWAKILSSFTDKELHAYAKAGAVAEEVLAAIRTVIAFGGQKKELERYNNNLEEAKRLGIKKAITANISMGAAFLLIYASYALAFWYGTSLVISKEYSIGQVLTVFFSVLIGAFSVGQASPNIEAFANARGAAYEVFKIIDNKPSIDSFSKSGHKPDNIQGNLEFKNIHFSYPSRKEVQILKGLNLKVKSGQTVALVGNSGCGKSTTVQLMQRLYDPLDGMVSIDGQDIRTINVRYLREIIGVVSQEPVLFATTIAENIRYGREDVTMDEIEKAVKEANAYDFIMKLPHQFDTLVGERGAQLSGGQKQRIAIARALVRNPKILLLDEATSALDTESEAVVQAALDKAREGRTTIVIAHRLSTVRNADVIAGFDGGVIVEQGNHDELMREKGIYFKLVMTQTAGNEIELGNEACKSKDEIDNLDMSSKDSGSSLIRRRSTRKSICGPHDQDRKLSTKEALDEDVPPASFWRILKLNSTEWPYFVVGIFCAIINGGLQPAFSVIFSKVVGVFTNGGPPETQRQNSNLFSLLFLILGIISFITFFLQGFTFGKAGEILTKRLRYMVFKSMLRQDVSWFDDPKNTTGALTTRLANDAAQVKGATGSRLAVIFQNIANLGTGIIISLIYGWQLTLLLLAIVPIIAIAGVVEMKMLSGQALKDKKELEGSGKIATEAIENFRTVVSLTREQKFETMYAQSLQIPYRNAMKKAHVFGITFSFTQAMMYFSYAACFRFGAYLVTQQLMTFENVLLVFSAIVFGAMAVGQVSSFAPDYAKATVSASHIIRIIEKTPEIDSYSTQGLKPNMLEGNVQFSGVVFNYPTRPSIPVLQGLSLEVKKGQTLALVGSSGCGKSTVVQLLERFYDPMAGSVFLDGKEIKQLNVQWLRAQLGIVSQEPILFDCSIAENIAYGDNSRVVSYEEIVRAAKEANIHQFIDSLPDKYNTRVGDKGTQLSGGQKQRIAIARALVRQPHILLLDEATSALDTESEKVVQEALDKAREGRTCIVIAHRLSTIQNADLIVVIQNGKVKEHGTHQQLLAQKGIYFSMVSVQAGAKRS
Experimental: MDR1-MDCKI cells were licensed from the NCI (National Cancer Institute, Bethesda, Md.) and Bcrp1-MDCKII, BCRP-MDCKII and Mdr1a-LLC-PK1 cells were obtained from the Netherlands Cancer Institute (Amsterdam. The Netherlands). […] The compound was dissolved in transport buffer consisting of Hank's balanced salt solution (HBSS) with 10 mM HEPES (Invitrogen Corporation, Grand Island, N.Y.). Lucifer Yellow (Sigma-Aldrich, St. Louis, Mo.) was used as the paracellular and monolayer integrity marker. […] The efflux ratio (ER) was calculated (Papp, B-A/Papp, A-B).

[2] = MALDI imaging of brain distribution, U87 orthotopic model; format: in vivo, female nude mice; details: 15 mg/kg PO, 1 hour post dose
Experimental: Mice were euthanized at 1 and 6 hours post-dose via exsanguination by perfusion under anesthesia. Brains were excised, flash frozen in liquid N2 and stored in a −80° C. freezer until analyzed. Fresh frozen tissue sections were obtained on a cryomicrotome (Leica CM3050S, Buffalo Grove, Ill.) at 12 μm thickness and thaw-mounted onto indium tin oxide coated glass slides (Bruker Daltonics, Billerica, Mass.). Tissue sections were an analyzed by imaging MALDI MS, providing signal intensities (and not absolute quantitation), followed by cresyl violet staining for histological interrogation.
For MALDI MAS analysis, a 40 mg/mL solution of 2,5-dihydroxybenzoic acid (Sigma-Aldrich, St. Louis, Mo.) was prepared in methanol:water (70:30 v/v). […] Matrix solution was homogenously spray-coated onto the tissue using a HTX TM-Sprayer (HTX technologies. Chapel Hill, N.C.). Matrix-coated tissue sections were transferred to the MALDI mass spectrometer (SolariX 7T FT-ICR, Bruker Daltonics, Bremen, Germany) for imaging analysis. […] Laser intensity and number of shots were optimized for sensitivity of the parent drug (1200 shots) with ion detection collected over the mass range of m/z 150-3000.
Following completion of the imaging experiments, matrix coaling was removed by rinsing the glass slide in 100% methanol for 30 seconds or until the entire matrix was visibly removed. […] Microscope images were obtained on an Olympus BX51 (Tokyo, Japan) at 10× magnification and stitched using MicroSuite Analytical v3.0 software (Olympus, Tokyo, Japan). Subsequently, stained images were co-registered to the optical images in FlexImaging for visualization and annotation of tumor and non-tumor regions for the drug images.
To assess drug distribution, imaging MALDI MS data from U87 and GS2 tumor models were co-registered to the cresyl violet stained microscope images in FlexImaging Regions of interest (ROIs) that were selected based on the anatomical features defined in the histological image including tumor and non-tumor regions. Drug intensity for each pixel within the defined ROI was extracted and exported. […] Histogram plots were created in GraphPad Prism 5 to visualize the distribution of pixel intensity frequencies.

CDK9/cyclinT1 = CDK9/cyclinT1 (Homo sapiens, UniProt P50750); assay: biochemical; details: read-out: % inhib
Chain of CDK9/cyclinT1 (P50750 whole entry, species assumed): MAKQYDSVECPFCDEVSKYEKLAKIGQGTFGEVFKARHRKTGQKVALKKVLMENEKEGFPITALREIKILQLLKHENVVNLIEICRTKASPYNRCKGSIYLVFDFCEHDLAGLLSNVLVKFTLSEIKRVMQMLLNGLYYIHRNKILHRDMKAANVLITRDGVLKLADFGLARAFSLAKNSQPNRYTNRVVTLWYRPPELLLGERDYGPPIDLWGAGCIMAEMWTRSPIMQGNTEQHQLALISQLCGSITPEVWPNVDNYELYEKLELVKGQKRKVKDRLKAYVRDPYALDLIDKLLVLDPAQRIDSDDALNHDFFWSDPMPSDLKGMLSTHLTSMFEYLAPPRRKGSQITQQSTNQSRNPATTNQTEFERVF
Chain of CDK9/cyclinT1 (O60563 whole entry partner, species assumed): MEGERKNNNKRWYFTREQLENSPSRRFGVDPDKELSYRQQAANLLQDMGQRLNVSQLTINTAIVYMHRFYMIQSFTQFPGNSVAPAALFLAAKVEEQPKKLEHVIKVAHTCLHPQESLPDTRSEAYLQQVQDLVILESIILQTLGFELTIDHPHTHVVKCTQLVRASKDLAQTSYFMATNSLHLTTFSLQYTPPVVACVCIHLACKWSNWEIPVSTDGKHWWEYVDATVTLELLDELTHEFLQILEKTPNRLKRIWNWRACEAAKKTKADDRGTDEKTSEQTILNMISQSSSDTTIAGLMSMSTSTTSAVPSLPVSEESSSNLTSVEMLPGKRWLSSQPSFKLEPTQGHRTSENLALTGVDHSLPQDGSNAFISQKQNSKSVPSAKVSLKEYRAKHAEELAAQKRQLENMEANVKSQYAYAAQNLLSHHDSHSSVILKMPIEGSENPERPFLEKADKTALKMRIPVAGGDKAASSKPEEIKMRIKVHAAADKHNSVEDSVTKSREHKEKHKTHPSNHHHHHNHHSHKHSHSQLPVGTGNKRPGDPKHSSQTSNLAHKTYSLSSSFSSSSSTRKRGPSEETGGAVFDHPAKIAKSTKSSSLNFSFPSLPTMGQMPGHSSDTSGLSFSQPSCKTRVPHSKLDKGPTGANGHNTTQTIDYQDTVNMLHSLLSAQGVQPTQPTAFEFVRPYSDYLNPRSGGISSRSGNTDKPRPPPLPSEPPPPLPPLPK

SMILES: CC1(C)OCCn2c1nc1c(N3CCOCC3)nc(-c3cnc(N)nc3)nc12 [GDC-0084, 5-(6,6-dimethyl-4-morpholino-8,9-dihydro-6H-[1,4]oxazino[3,4-e]purin-2-yl)pyrimidin-2-amine]
- inhibition of pAKT (pAKT/total AKT) in U87 tumors (pAKT): Dose and concentration dependent inhibition of pAKT
- fraction unbound [1]: 0.25
- Papp B→A at 2 h, 5 μM (mouse P-gp (mdr1a)): 19.4 ± 1.3 ×10⁻⁶ cm/s
- distribution in brain and intracranial tumors (MALDI images) ([2]; U87 and GS2 models): distributed readily and quite evenly throughout the brain
- mean pixel intensity (MALDI imaging) ([2]; U87 tumors): 0.54
- mean pixel intensity (MALDI imaging) ([2]; healthy brain of U87 tumor-bearing mice): 0.54
- inhibition at 1 µM (CDK9/cyclinT1): -0.9%
